Data from PubChem BioAssay AID2060499 (Molecular Pharmacology Branch, DTP, NCI, 2025).

Test system: 777334-354-R2-J4-PDC tumor spheroids with HUVEC/MSC, viability
Assay: Anticancer human tumor 777334-354-R2-J4-PDC patient-derived pancreatic adenocarcinoma cell line growth inhibition [GQUAD]
Settings: for IC50: curve of first compound; for viability, T/C: stronger effect = lower value; active = viability on the fitted dose curve at most 10% of control; inactive = the rest
Procedure, shortened: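 Viability of tumor cells grown as complex spheroids with endothelial and stromal cells, exposed to drug combinations. Top concentration at or near clinical Cmax (else 10 microM), diluted in half-log increments.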

[1] = second compound 0.0316 µM, first compound 0.0316 µM
[2] = second compound 0.0316 µM, first compound 0.316 µM
[3] = second compound 0.1 µM, first compound 0.0316 µM
[4] = second compound 0.1 µM, first compound 0.316 µM
[5] = second compound 0.316 µM, first compound 0.0316 µM
[6] = second compound 0.316 µM, first compound 0.316 µM
[7] = second compound 1 µM, first compound 0.0316 µM
[8] = second compound 1 µM, first compound 0.316 µM
[9] = second compound 3.16 µM, first compound 0.0316 µM
[10] = second compound 3.16 µM, first compound 0.316 µM
[11] = second compound 10 µM, first compound 0.0316 µM
[12] = second compound 10 µM, first compound 0.316 µM
[13] = second compound 0.0316 µM, first compound 0.1 µM
[14] = second compound 0.0316 µM, first compound 1 µM
[15] = second compound 0.0316 µM, first compound 3.16 µM
[16] = second compound 0.0316 µM, first compound 10 µM
[17] = second compound 0.1 µM, first compound 0.1 µM
[18] = second compound 0.1 µM, first compound 1 µM
[19] = second compound 0.1 µM, first compound 3.16 µM
[20] = second compound 0.1 µM, first compound 10 µM
[21] = second compound 0.316 µM, first compound 0.1 µM
[22] = second compound 0.316 µM, first compound 1 µM
[23] = second compound 0.316 µM, first compound 3.16 µM
[24] = second compound 0.316 µM, first compound 10 µM
[25] = second compound 1 µM, first compound 0.1 µM
[26] = second compound 1 µM, first compound 1 µM
[27] = second compound 1 µM, first compound 3.16 µM
[28] = second compound 1 µM, first compound 10 µM
[29] = second compound 3.16 µM, first compound 0.1 µM
[30] = second compound 3.16 µM, first compound 1 µM
[31] = second compound 3.16 µM, first compound 3.16 µM
[32] = second compound 3.16 µM, first compound 10 µM
[33] = second compound 10 µM, first compound 0.1 µM
[34] = second compound 10 µM, first compound 1 µM
[35] = second compound 10 µM, first compound 3.16 µM
[36] = second compound 10 µM, first compound 10 µM
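Note: spheroids exposed to compounds for 7 days before readout.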

Cn1ncnc1[C@H]1c2n[nH]c(=O)c3cc(F)cc(c23)N[C@@H]1c1ccc(F)cc1 + CN(C)c1ccc(Nc2c3ccc(NC(=O)CCN4CCCC4)cc3nc3cc(NC(=O)CCN4CCCC4)ccc23)cc1
> 316 nM: IC50 (second compound 0.0316 µM) | IC50 (second compound 0.1 µM) | IC50 (second compound 0.316 µM) | IC50 (second compound 1 µM) | IC50 (second compound 3.16 µM) | IC50 (second compound 10 µM)
inactive: viability, T/C (second compound 0.0316 µM, first compound 0.000999 µM) 108% | viability, T/C (second compound 0.0316 µM, first compound 0.00316 µM) 89.9% | viability, T/C (second compound 0.0316 µM, first compound 0.00999 µM) 87.1% | viability, T/C [1] 95.8% | viability, T/C (second compound 0.0316 µM, first compound 0.0999 µM) 92.2% | viability, T/C [2] 79.7% | viability, T/C (second compound 0.1 µM, first compound 0.000999 µM) 98.7% | viability, T/C (second compound 0.1 µM, first compound 0.00316 µM) 85.4% | viability, T/C (second compound 0.1 µM, first compound 0.00999 µM) 99% | viability, T/C [3] 88.6% | viability, T/C (second compound 0.1 µM, first compound 0.0999 µM) 79.6% | viability, T/C [4] 81.2% | viability, T/C (second compound 0.316 µM, first compound 0.000999 µM) 94% | viability, T/C (second compound 0.316 µM, first compound 0.00316 µM) 87.4% | viability, T/C (second compound 0.316 µM, first compound 0.00999 µM) 93.1% | viability, T/C [5] 87.9% | viability, T/C (second compound 0.316 µM, first compound 0.0999 µM) 88.5% | viability, T/C [6] 70.5% | viability, T/C (second compound 1 µM, first compound 0.000999 µM) 103% | viability, T/C (second compound 1 µM, first compound 0.00316 µM) 86.6% | viability, T/C (second compound 1 µM, first compound 0.00999 µM) 85.5% | viability, T/C [7] 85.5% | viability, T/C (second compound 1 µM, first compound 0.0999 µM) 82.5% | viability, T/C [8] 69.5% | viability, T/C (second compound 3.16 µM, first compound 0.000999 µM) 73.5% | viability, T/C (second compound 3.16 µM, first compound 0.00316 µM) 72.7% | viability, T/C (second compound 3.16 µM, first compound 0.00999 µM) 81.6% | viability, T/C [9] 89.9% | viability, T/C (second compound 3.16 µM, first compound 0.0999 µM) 83.1% | viability, T/C [10] 70.9% | viability, T/C (second compound 10 µM, first compound 0.000999 µM) 76.2% | viability, T/C (second compound 10 µM, first compound 0.00316 µM) 74.9% | viability, T/C (second compound 10 µM, first compound 0.00999 µM) 80.6% | viability, T/C [11] 77.6% | viability, T/C (second compound 10 µM, first compound 0.0999 µM) 82.2% | viability, T/C [12] 66.1%

O=c1[nH]cc(F)c(=O)[nH]1 + Cc1cnc(CNC(=O)c2c(=O)c3ccc(N4CCCN(C)CC4)nc3n3c2sc2ccccc23)cn1
inactive: viability, T/C [1] 97.7% | viability, T/C [13] 94.8% | viability, T/C [2] 91.9% | viability, T/C [14] 87.9% | viability, T/C [15] 69.5% | viability, T/C [16] 64.5% | viability, T/C [3] 82.4% | viability, T/C [17] 84.8% | viability, T/C [4] 89% | viability, T/C [18] 80.1% | viability, T/C [19] 82% | viability, T/C [20] 68.3% | viability, T/C [5] 85.3% | viability, T/C [21] 82.8% | viability, T/C [6] 73.8% | viability, T/C [22] 75.8% | viability, T/C [23] 74.7% | viability, T/C [24] 66.5% | viability, T/C [7] 71.3% | viability, T/C [25] 66.8% | viability, T/C [8] 68% | viability, T/C [26] 67.7% | viability, T/C [27] 73.2% | viability, T/C [28] 65.7% | viability, T/C [9] 59.4% | viability, T/C [29] 73.2% | viability, T/C [10] 67.3% | viability, T/C [30] 61.6% | viability, T/C [31] 68.8% | viability, T/C [32] 56% | viability, T/C [11] 57.7% | viability, T/C [33] 61.9% | viability, T/C [12] 59% | viability, T/C [34] 59.7% | viability, T/C [35] 50.8% | viability, T/C [36] 51.8%
> 10000 nM: IC50 (second compound 0.0316 µM) | IC50 (second compound 0.1 µM) | IC50 (second compound 0.316 µM) | IC50 (second compound 1 µM) | IC50 (second compound 3.16 µM) | IC50 (second compound 10 µM)

COc1ccc([C@@H](O)c2cc(-c3ncnc4cc(N5CCOCC5)ccc34)c(F)cc2Cl)nn1 + Cc1cnc(CNC(=O)c2c(=O)c3ccc(N4CCCN(C)CC4)nc3n3c2sc2ccccc23)cn1
inactive: viability, T/C [1] 101% | viability, T/C [13] 94.4% | viability, T/C [2] 101% | viability, T/C [14] 72.1% | viability, T/C [15] 51% | viability, T/C [16] 24.6% | viability, T/C [3] 102% | viability, T/C [17] 84.4% | viability, T/C [4] 69.9% | viability, T/C [18] 57.9% | viability, T/C [19] 42.8% | viability, T/C [20] 23.2% | viability, T/C [5] 93.9% | viability, T/C [21] 89.3% | viability, T/C [6] 75.8% | viability, T/C [22] 64.8% | viability, T/C [23] 42% | viability, T/C [24] 20.1% | viability, T/C [7] 76.2% | viability, T/C [25] 84.1% | viability, T/C [8] 69.5% | viability, T/C [26] 57.7% | viability, T/C [27] 36.3% | viability, T/C [28] 19.2% | viability, T/C [9] 61.1% | viability, T/C [29] 64.9% | viability, T/C [10] 63.1% | viability, T/C [30] 45.6% | viability, T/C [31] 34.9% | viability, T/C [32] 17.1% | viability, T/C [11] 58.4% | viability, T/C [33] 61% | viability, T/C [12] 52.5% | viability, T/C [34] 48.5% | viability, T/C [35] 28.6% | viability, T/C [36] 15.6%
2100 nM: IC50 (second compound 0.316 µM)
955 nM: IC50 (second compound 3.16 µM)
2990 nM: IC50 (second compound 0.0316 µM)
1490 nM: IC50 (second compound 1 µM)
1610 nM: IC50 (second compound 0.1 µM)
662 nM: IC50 (second compound 10 µM)

C#Cc1c(F)ccc2cc(O)cc(-c3ncc4c(N5CC6CCC(C5)N6)nc(OCC56CCCN5CC(F)C6)nc4c3F)c12 (stereo not drawn) + Cc1cnc(CNC(=O)c2c(=O)c3ccc(N4CCCN(C)CC4)nc3n3c2sc2ccccc23)cn1
< 31.6 nM: IC50 (second compound 0.0316 µM) | IC50 (second compound 0.1 µM) | IC50 (second compound 0.316 µM) | IC50 (second compound 1 µM) | IC50 (second compound 3.16 µM) | IC50 (second compound 10 µM)
active: viability, T/C [35] 8.87% | viability, T/C [36] 3.17%
inactive: viability, T/C [1] 49.7% | viability, T/C [13] 38.7% | viability, T/C [2] 31.4% | viability, T/C [14] 31.6% | viability, T/C [15] 27.1% | viability, T/C [16] 24.2% | viability, T/C [3] 45.1% | viability, T/C [17] 34.4% | viability, T/C [4] 30.9% | viability, T/C [18] 26.4% | viability, T/C [19] 23.5% | viability, T/C [20] 21.3% | viability, T/C [5] 39.6% | viability, T/C [21] 33.8% | viability, T/C [6] 28.8% | viability, T/C [22] 25.6% | viability, T/C [23] 22.6% | viability, T/C [24] 19.9% | viability, T/C [7] 36.2% | viability, T/C [25] 29.4% | viability, T/C [8] 31.1% | viability, T/C [26] 23.6% | viability, T/C [27] 21.9% | viability, T/C [28] 19.4% | viability, T/C [9] 28% | viability, T/C [29] 25.5% | viability, T/C [10] 22.8% | viability, T/C [30] 19.2% | viability, T/C [31] 17.5% | viability, T/C [32] 14.4% | viability, T/C [11] 22% | viability, T/C [33] 16.7% | viability, T/C [12] 15% | viability, T/C [34] 8.71%
